One block for each molecule: values may come before it.
Experiments:
[1] = tested on: class I PI3K; assay: PI3K HTRF assay (Reaction Biology), class I PI3K; format: biochemical, human; conditions: Yes = inhibition
[2] = biological target: T1, Human PI3Kβ (p110β/p85α) (Homo sapiens, UniProt P42338); assay: PI3K HTRF assay, PI3Kβ; format: biochemical
T1 construct: N-terminal 6His-tagged recombinant full-length human p110β; 6His (N); purchased Reaction Biology Corporation (RBC), Malvern, Pa; host or cells: Baculovirus infected Sf21 cells

[3] = biological target: T2, Human PI3Kδ (p110δ/p85α) (Homo sapiens, UniProt O00329); assay: PI3K HTRF assay, PI3Kδ; format: biochemical
T2 construct: N-terminal GST tagged recombinant full-length human p110δ; GST (N); purchased Reaction Biology Corporation (RBC), Malvern, Pa; host or cells: Baculovirus infected Sf9 cells

[4] = biological target: hemoglobin (Homo sapiens, UniProt P68871+P69905); conditions: background statement; can displace Hb-bound BPG; cited from earlier work
[5] = biological target: T3, free hemoglobin (Hb) (Homo sapiens, UniProt P68871+P69905); assay: Oxygen equilibrium curve (Hemox Analyzer), P50 on free hemoglobin; format: biochemical; conditions: blood matrix Hb, 100 mM compound; for P50 (Torr): effector/Hb ratio 20, pH 7.4, 37° C., n=3; for P50 increase (%): versus P50 control
T3 construct: the cells were hemolysed by addition of 2 volumes of cold distilled water; tissue EFS-Alsace; host or cells: red blood cell concentrate
Protocol: (§1) Some of the compounds described herein were tested for P50, the partial pressure of oxygen for half-saturation, on free hemoglobin (Hb) as well as human whole blood (WB) in different concentrations.
The hemoglobin solution was prepared from red blood cells concentrate (EFS-Alsace) by washing three times with 1 volume of saline (1500×g, 10 min), the cells were hemolysed by addition of 2 volumes of cold distilled water. After centrifugation (7000×g, 30 min) for stroma removal, 5 ml of the clear hemoglobin solution were placed on a 2.5 cm×30 cm column of Sephadex G-25 equilibrated with 0.1 M sodium chloride+10^−5 M EDTA. The protein was eluted with the same solution at a rate of about 20 ml/h [Benesch, R.; Benesch, R. E. and Yu, C. I. Reciprocal binding of oxygen and diphosphoglycerate by human hemoglobin. Proc. Natl. Acad. Sci. USA (1968) 59, 526-532].
The allosteric modulation of the effectors was measured by the change in p50, the partial pressure of oxygen for half-saturation. The pH of the compound solutions was adjusted to approximately 7.0. Oxygen equilibrium curves (OEC) were carried out with the Hemox Analyzer (TCS Scientific Co.) under the following conditions: pH 7.4, 135 mM NaCl, 5 mM KCl and 30 mM TES (N—[tris(hydroxymethyl)methyl]-2-aminoethanesulfonic acid) buffer at 37° C. The concentration of free hemoglobin was 5·10^−3 M (577 nm, ε=58.4 mM^−1 cm^−1 per tetramer) and the final concentrations of the allosteric effectors were of 1.0·10^−1 M, resulting in an effector/Hb ratio of 20.

[6] = biological target: T4, hemoglobin in human whole blood (WB) (Homo sapiens, UniProt P68871+P69905); assay: Oxygen equilibrium curve (Hemox Analyzer), P50 in human whole blood; format: cell-based; conditions: blood matrix WB; for P50 (Torr): incubated 1-2 h at 37° C., n=3; for P50 increase (%): versus P50 control
T4 construct: Human whole blood was freshly withdrawn from healthy donors in heparinized microtubes; from tissue; host or cells: fresh human whole blood from healthy donors
Protocol: as §1
Human whole blood was freshly withdrawn from healthy donors in heparinized microtubes. The pH of the compound solutions was adjusted to approximately 7.0 and whole blood volumes at 1:1 ratios were incubated individually for 1-2 h at 37° C. with the above compounds. The measurement of the OEC was carried out with the Hemox Analyzer (TCS Scientific Co.) under the following conditions: pH 7.4, 135 mM NaCl, 5 mM KCl and 30 mM TES (N-[tris(hydroxymethyl)methyl]-2-aminoethanesulfonic acid) buffer at 37° C.

T4 sequence (P69905 2-142 limits assumed): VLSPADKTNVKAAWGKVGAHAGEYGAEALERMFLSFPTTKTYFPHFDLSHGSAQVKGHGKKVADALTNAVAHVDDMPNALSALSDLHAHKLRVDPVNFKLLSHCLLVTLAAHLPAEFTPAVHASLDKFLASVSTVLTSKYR
T4 sequence (P68871 2-147 limits assumed): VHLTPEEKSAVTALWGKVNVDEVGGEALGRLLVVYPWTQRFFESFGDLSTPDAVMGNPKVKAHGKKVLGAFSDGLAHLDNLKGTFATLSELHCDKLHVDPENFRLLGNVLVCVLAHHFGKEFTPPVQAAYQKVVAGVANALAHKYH
T3 sequence (P69905 2-142 limits assumed): as the sequence (P69905 2-142 limits assumed) above
T3 sequence (P68871 2-147 limits assumed): as the sequence (P68871 2-147 limits assumed) above
T1 sequence (P42338 whole entry): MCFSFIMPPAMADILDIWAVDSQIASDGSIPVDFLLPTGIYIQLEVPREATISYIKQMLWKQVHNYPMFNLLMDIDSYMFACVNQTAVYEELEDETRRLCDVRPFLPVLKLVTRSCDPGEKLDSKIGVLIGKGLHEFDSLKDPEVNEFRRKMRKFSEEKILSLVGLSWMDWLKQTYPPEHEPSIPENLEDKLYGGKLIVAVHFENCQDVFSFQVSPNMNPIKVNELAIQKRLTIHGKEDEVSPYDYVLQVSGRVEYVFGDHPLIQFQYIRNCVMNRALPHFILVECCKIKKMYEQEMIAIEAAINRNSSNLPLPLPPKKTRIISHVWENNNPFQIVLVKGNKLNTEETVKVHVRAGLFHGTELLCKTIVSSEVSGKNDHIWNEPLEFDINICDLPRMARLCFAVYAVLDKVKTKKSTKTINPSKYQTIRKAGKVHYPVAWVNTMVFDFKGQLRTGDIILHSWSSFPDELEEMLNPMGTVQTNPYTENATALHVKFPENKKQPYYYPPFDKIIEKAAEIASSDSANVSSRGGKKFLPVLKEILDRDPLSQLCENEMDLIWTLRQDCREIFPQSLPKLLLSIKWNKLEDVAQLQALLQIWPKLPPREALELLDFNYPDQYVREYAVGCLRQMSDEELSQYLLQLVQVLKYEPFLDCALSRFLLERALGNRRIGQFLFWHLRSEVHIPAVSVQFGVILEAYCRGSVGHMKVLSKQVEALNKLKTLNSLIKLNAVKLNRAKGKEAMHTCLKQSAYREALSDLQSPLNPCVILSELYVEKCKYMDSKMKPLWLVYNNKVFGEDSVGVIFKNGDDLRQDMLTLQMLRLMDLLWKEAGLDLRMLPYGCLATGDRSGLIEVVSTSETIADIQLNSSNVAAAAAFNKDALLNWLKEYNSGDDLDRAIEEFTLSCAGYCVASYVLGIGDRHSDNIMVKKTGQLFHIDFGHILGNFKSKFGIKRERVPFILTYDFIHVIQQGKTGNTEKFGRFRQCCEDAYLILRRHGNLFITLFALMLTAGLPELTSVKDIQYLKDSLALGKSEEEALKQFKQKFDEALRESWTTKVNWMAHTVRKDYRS
T1 sequence (P27986 whole entry partner): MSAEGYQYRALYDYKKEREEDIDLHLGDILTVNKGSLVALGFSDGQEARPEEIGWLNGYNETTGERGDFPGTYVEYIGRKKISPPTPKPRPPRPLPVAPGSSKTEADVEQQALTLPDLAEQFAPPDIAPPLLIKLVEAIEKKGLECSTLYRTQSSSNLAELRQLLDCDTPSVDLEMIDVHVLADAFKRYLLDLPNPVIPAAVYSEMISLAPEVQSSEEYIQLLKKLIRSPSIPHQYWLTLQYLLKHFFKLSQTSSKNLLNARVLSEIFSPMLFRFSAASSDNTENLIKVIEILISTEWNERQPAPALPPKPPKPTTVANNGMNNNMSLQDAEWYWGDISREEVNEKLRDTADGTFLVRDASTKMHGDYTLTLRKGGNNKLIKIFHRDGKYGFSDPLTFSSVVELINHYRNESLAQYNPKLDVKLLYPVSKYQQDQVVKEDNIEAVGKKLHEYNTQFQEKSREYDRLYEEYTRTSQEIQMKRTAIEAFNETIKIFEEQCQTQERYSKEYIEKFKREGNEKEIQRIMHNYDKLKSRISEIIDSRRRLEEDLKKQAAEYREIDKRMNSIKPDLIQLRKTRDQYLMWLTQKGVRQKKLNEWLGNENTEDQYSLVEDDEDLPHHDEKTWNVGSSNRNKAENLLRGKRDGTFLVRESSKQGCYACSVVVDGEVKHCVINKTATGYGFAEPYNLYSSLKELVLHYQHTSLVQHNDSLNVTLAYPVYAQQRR
T2 sequence (O00329 whole entry): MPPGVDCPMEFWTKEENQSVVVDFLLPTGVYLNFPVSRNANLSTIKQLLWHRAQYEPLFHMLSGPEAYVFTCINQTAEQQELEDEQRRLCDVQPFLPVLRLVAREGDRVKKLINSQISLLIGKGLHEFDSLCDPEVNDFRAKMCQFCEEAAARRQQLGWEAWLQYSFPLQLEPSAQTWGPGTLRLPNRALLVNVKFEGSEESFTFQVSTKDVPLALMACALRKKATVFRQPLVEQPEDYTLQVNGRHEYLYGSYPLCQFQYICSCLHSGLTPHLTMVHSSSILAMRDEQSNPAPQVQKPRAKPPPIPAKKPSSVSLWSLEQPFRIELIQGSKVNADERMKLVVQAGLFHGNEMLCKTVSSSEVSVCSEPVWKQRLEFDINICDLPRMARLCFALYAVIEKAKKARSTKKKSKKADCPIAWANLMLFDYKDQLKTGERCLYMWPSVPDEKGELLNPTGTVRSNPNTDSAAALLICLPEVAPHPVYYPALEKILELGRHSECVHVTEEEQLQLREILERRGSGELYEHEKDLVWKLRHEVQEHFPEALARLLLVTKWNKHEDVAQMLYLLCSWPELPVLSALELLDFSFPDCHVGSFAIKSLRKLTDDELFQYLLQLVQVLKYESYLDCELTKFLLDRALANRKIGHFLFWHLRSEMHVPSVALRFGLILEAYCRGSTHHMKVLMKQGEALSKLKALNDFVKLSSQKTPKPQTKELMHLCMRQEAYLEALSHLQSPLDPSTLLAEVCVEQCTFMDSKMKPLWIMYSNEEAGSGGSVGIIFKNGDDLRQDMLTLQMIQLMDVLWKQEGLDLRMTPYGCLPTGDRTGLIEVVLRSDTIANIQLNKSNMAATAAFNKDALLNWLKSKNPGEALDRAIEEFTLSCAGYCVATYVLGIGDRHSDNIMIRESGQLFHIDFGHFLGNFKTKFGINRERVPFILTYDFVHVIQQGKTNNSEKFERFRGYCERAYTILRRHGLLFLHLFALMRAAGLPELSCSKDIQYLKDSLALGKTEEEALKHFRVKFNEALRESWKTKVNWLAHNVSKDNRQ
T2 sequence (P27986 whole entry partner): as the sequence (P27986 whole entry partner) above
Sequence of hemoglobin (P69905 2-142 limits assumed): as the sequence (P69905 2-142 limits assumed) above
Sequence of hemoglobin (P68871 2-147 limits assumed): as the sequence (P68871 2-147 limits assumed) above

Molecule: O=P1(O)OC2C3OP(=O)(O)OP(=O)(O)OC3C3OP(=O)(O)OP(=O)(O)OC3C2OP(=O)(O)O1 (stereo not shown) [OXY111A, Myo-ITPP]
PI3 Kinase Inhibition [1]: Yes
activity against PI3Kβ [2]: showed activity
activity against PI3Kδ [3]: showed activity

Molecule: CCOC(=O)[C@@H]1OP(=O)([O-])OP(=O)([O-])O[C@H]1C(=O)OCC.[Na+].[Na+] [OXY3012, L-DET]
PI3 Kinase Inhibition [1]: Yes

Molecule: O=P(O)(O)O[C@H]1[C@H](OP(=O)(O)O)[C@@H](OP(=O)(O)O)[C@H](OP(=O)(O)O)[C@@H](OP(=O)(O)O)[C@H]1OP(=O)(O)O [Phytic acid, myo-inositol hexakisphosphate]
potency relative to BPG (fold) [4]: 1000 fold

P50 (Torr) [5]: 29.40 ± 1.20 Torr
P50 increase (%) [5]: 151%
P50 (Torr) ([6]; 120 mM compound): 30.17 ± 0.94 Torr
P50 increase (%) ([6]; 120 mM compound): 17%
Molecule: O=P(O)(O)OCC(OP(=O)(O)O)C(COP(=O)(O)O)OP(=O)(O)O (stereo not drawn) [SP1-134, meso-erythritol tetraphosphate]

Molecule: Dibutyl-L-tartrate bisphosphate [SP1-219]
P50 (Torr) ([6]; 60 mM compound): 30.91 ± 1.76 Torr
P50 increase (%) ([6]; 60 mM compound): 11%
P50 (Torr) ([6]; 120 mM compound): 30.77 ± 1.44 Torr
P50 increase (%) ([6]; 120 mM compound): 11%

Molecule: L-tartrate bisphosphate [SP1-90]
P50 (Torr) [5]: 24.76 ± 1.31 Torr
P50 increase (%) [5]: 127%

Molecule: meso-Me Galactarate [OXY3006]
PI3 Kinase Inhibition [1]: Yes

Reference: patent publication US20140142052A1, “PHOSPHORYLATED POLYOLS, PYROPHOSPHATES, AND DERIVATIVES THEREOF HAVING BIOLOGICAL ACTIVITY” (NormOxys, Inc., priority 2012, published 2014)
